Target: S. pneumoniae Topoisomerase IV ATPase (ParE) (Streptococcus pneumoniae serotype 4, UniProt Q59961)
Assay: S. pneumoniae Topoisomerase IV ATPase inhibition
Type: biochemical
Conditions: values marked * are an average of two or more data points, read-out: % Inh (13 μM) of S. pneumoniae Topoisomerase IV ATPase
Summary of the method: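 ParE ATPase (1.25 nM) run with 160 μM ATP and 5 μg/ml sheared salmon sperm DNA in Tris pH 8.0, Mg2+, glycerol, DTT, Brij-35. Phosphate released read by malachite green/molybdate absorbance at 650 nm. IC50 from 10 compound concentrations; DMSO (2%) as 0% and EDTA (20 μM) as 100% inhibition.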

S. pneumoniae Topoisomerase IV ATPase (ParE), sequence (Q59961 whole entry): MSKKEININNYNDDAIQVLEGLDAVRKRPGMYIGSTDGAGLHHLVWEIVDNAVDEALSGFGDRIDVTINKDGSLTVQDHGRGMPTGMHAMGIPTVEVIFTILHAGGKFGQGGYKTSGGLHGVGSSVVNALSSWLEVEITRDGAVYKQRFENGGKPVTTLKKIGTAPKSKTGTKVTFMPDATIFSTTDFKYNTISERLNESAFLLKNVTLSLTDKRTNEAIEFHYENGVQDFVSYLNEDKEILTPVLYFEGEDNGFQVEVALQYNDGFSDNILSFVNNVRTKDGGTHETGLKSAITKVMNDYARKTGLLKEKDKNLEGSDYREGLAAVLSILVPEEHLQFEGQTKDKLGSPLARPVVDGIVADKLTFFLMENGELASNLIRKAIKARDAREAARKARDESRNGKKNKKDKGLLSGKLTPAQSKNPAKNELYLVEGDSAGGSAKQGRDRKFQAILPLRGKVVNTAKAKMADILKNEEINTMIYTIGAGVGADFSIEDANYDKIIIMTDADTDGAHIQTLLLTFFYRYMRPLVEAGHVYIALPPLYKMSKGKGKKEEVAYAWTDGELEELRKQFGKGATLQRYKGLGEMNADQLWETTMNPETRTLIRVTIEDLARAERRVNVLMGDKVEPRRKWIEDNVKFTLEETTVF

Row | Structure (SMILES) | inhibition at 13 µM [%]
1 | Cc1cc(-c2nccs2)nn1-c1nc(Nc2ccc(F)c(Cl)c2)ncc1-c1cncc(C(=O)O)c1 [Example 529, 5-{2-[(3-chloro-4-fluorophenyl)amino]-4-[5-methyl-3-(1,3-thiazol-2-yl)-1H-pyrazol-1-yl]pyrimidin-5-yl}pyridine-3-carboxylic acid] | 100
2 | Cc1cnc(C(=O)NCCCNc2nc(Nc3ccc(F)c(Cl)c3)ncc2-c2cncc(C(=O)O)c2)cn1 [Example 278] | 77
3 | COc1cc(Nc2ncc(-c3cccc(/C=C/C(=O)O)c3)c(-n3ccc(C(F)(F)F)n3)n2)cc(S(C)(=O)=O)c1 [Example 659, (2E)-3-[3-(2-{[3-methoxy-5-(methylsulfonyl)phenyl]amino}-4-[3-(trifluoromethyl)-1H-pyrazol-1-yl]pyrimidin-5-yl)phenyl]prop-2-enoic acid] | 100
4 | O=C(O)c1cncc(-c2cnc(Nc3ccc(F)c(Cl)c3)nc2-n2cc(-c3ccncn3)cn2)c1 [Example 536, 5-{2-[(3-chloro-4-fluorophenyl)amino]-4-[4-(pyrimidin-4-yl)-1H-pyrazol-1-yl]pyrimidin-5-yl}pyridine-3-carboxylic acid] | 100
5 | CCOC(=O)c1cncc(-c2cnc(Nc3ccc(F)c(Cl)c3)nc2N2C(C)CCC2C)c1 (stereo not shown) [Example 125, ethyl 5-[2-[(3-chloro-4-fluorophenyl)amino]-4-(2,5-dimethylpyrrolidin-1-yl)pyrimidin-5-yl]pyridine-3-carboxylate] | 17.5
6 | Fc1ccc(Nc2ncc(-c3cncnc3)c(NCc3ccccn3)n2)cc1Cl [Example 38, N^2-(3-chloro-4-fluorophenyl)-N^4-(pyridin-2-ylmethyl)-5-pyrimidin-5-ylpyrimidine-2,4-diamine] | 62.3
7 | COCCCNc1nc(Nc2ccc(F)c(Cl)c2)ncc1-c1cncc(S(C)(=O)=O)c1 [Example 987, N2-(3-chloro-4-fluorophenyl)-N4-(3-methoxypropyl)-5-(5-(methylsulfonyl)pyridin-3-yl)pyrimidine-2,4-diamine] | 30
8 | C[C@@H](Nc1nc(Nc2ccc(F)c(Cl)c2)ncc1-c1cncc(C(=O)O)c1)C(=O)O [Example 240, 5-[2-[(3-chloro-4-fluorophenyl)amino]-4-[[(2R)-1-hydroxy-1-oxopropan-2-yl]amino]pyrimidin-5-yl]pyridine-3-carboxylic acid] | 45.8
9 | O=C(O)c1cncc(-c2cnc(Nc3ccc(F)c(Cl)c3)nc2NCCc2cccnc2)c1 [Example 229, 5-[2-(3-Chloro-4-fluoro-phenylamino)-4-(2-pyridin-3-yl-ethylamino)-pyrimidin-5-yl]-nicotinic acid] | 85
10 | O=C(O)c1cncc(-c2cnc(Nc3ccc(F)c(Cl)c3)nc2N2CCCC(CO)C2)c1 (stereo not shown) [Example 245, 5-[2-[(3-chloro-4-fluorophenyl)amino]-4-[3-(hydroxymethyl)piper-idin-1-yl]pyrimidin-5-yl]pyridine-3-carboxylic acid] | 83.1
11 | Fc1ccc(Nc2ncc(-c3cncnc3)c(-n3cccc3)n2)cc1Cl [Example 73, N-(3-chloro-4-fluorophenyl)-4-(1H-pyrrol-1-yl)-5,5′-bipyrimidin-2-amine] | 89.6
12 | O=C(O)/C=C/c1cccc(-c2cnc(Nc3cccc(F)c3)nc2-n2ccc(C(F)(F)F)n2)c1 [Example 621, (2E)-3-(3-{2-[(3-fluorophenyl)amino]-4-[3-(trifluoromethyl)-1H-pyrazol-1-yl]pyrimidin-5-yl}phenyl)prop-2-enoic acid] | 100
13 | NC(=O)c1cncc(-c2cnc(Nc3ccc(F)c(Cl)c3)nc2-n2nc(C(F)F)cc2C(F)F)c1 [Example 539, 5-{4-[3,5-bis(difluoromnethyl)-1H-pyrazol-1-yl]-2-[(3-chloro-4-fluorophenyl)amino]pyrimidin-5-yl}pyridine-3-carboxamide] | 100
14 | Cn1cncc1CNc1nc(Nc2ccc(F)c(Cl)c2)ncc1-c1cncc(C(=O)O)c1 [Example 281, 5-(2-(3-chloro-4-fluorophenylamino)-4-((1-methyl-1H-imidazol-5-yl)methylamino)pyrimidin-5-yl)nicotinic acid] | 95.8
15 | CN(C)CCCNc1nc(Nc2ccc(F)c(Cl)c2)ncc1-c1ccc(C(=O)NCc2ccccc2)s1 [Example 368, N-benzyl-5-(2-(3-chloro-4-fluorophenylamino)-4-(3-(dimethylamino)propylamino)pyrimidin-5-yl) thiophene-2-carboxamide] | 105
16 | NC(=O)c1cncc(-c2cnc(Nc3ccc(F)c(Cl)c3)nc2NCCc2cccnc2)c1 [Example 473, 5-(2-[(3-chloro-4-fluorophenyl)amino]-4-{[2-(pyridin-3-yl)ethyl]amino}pyrimidin-5-yl)-pyridine-3-carboxamide] | 62

Row | Structure (SMILES) | inhibition at 13 µM [%]
17 | Cc1ncsc1CCNc1nc(Nc2ccc(F)c(Cl)c2)ncc1-c1cncc(C(=O)O)c1 [Example 262, 5-(2-[(3-chloro-4-fluorophenyl)amino]-4-{[2-(4-methyl-1,3-thiazol-5-yl)ethyl]amino}pyrimidin-5-yl)pyridine-3-carboxylic acid] | 80.5
18 | COc1cc(Nc2ncc(-c3cccnc3)c(-n3nc(C(F)(F)F)cc3C)n2)cc(C(F)(F)F)c1 [Example 884, N-(3-methoxy-5-(trifluoromethyl)phenyl)-4-(5-methyl-3-(trifluoromethyl)-1H-pyrazol-1-yl)-5-(pyridin-3-yl)pyrimidin-2-amine] | 100
19 | O=C(O)/C=C/c1cccc(-c2cnc(Nc3ccc(F)c(Cl)c3)nc2N2CCCC2)c1 [Example 294, (E)-3-(3-(2-(3-chloro-4-fluorophenylamino)-4-(pyrrolidin-1-yl)pyrimidin-5-yl)phenyl)acrylic acid] | 73.2
20 | Fc1ccc(Nc2ncc(-c3cncnc3)c(NCCc3c[nH]cn3)n2)cc1Cl [Example 471, N^2-(3-chloro-4-fluorophenyl)-N^4-[2-(1H-imidazol-4-yl)ethyl]-5,5′-bipyrimidine-2,4-diamine] | 84
21 | COc1cc(Nc2ncc(-c3cnc(OC)c(C(=O)NS(=O)(=O)C(C)C)c3)c(-n3nc(C(F)(F)F)cc3C)n2)cc(OC)c1 [Example 819, 5-{2-[(3,5-dimethoxyphenyl)amino]-4-[5-methyl-3-(trifluoromethyl)-1H-pyrazol-1-yl]pyrimidin-5-yl}-2-methoxy-N-(propan-2-ylsulfonyl)pyridine-3-carboxamide] | 100
22 | COc1cc(C)cc(Nc2ncc(-c3cnc(OC)c(-c4n[nH]c(=O)o4)c3)c(-n3nc(C(F)(F)F)cc3C)n2)c1 [Example 1170, 5-(2-methoxy-5-{2-[(3-methoxy-5-methylphenyl)amino]-4-[5-methyl-3-(trifluoromethyl)-1H-pyrazol-1-yl]pyrimidin-5-yl}pyridin-3-yl)-1,3,4-oxadiazol-2(3H)-one] | 100
23 | O=C(O)/C=C/c1cccc(-c2cnc(Nc3ccc(F)c(Cl)c3)nc2NCCCc2nc3ccccc3[nH]2)c1 [Example 289, (E)-3-(3-(4-(3-(1H-benzo[d]imidazol-2-yl)propylamino)-2-(3-chloro-4-fluorophenylamino)-pyrimidin-5-yl)phenyl)acrylic acid] | 88.2
24 | Cc1cc(C#N)cc(Nc2ncc(-c3cncc(C(=O)O)c3)c(-n3ccc(C(F)(F)F)n3)n2)c1 [Example 784, 5-{2-[(3-cyano-5-methylphenyl)amino]-4-[3-(trifluoromethyl)-1H-pyrazol-1-yl]pyrimidin-5-yl}pyridine-3-carboxylic acid] | 70
25 | COc1ncc(-c2cnc(Nc3cc(C)cc(Cl)c3)nc2-n2nc(C(F)(F)F)cc2C)cc1C(=O)O [Example 802, 5-{2-[(3-chloro-5-methylphenyl)amino]-4-[5-methyl-3-(trifluoromethyl)-1H-pyrazol-1-yl]pyrimidin-5-yl}-2-methoxypyridine-3-carboxylic acid] | 100
26 | CN(C)CCCNc1nc(Nc2ccc(F)c(Cl)c2)ncc1-c1ccc(F)c(C#N)c1 [Example 13, 5-{2-(3-chloro-4-fluorophenylamino)-4-[3-(dimethylamino)propylamino]pyrimidin-5-yl}-2-fluorobenzonitrile] | 102
27 | COc1ncc(-c2cnc(Nc3cc(Cl)cc(C#N)c3)nc2-n2nc(C(F)(F)F)cc2C)cc1C(=O)O [Example 1122, 5-(2-(3-chloro-5-cyanophenylamino)-4-(5-methyl-3-(trifluoromethyl)-1H-pyrazol-1-yl)pyrimidin-5-yl)-2-methoxynicotinic acid] | 100
28 | COc1cc(C)cc(Nc2ncc(-c3cnc(OC)c(C(=O)NS(C)(=O)=O)c3)c(-n3nc(C(F)(F)F)cc3C)n2)c1 [Example 857, 2-methoxy-5-{2-[(3-methoxy-5-methylphenyl)amino]-4-[5-methyl-3-(trifluoromethyl)-1H-pyrazol-1-yl]pyrimidin-5-yl}-N-(methylsulfonyl)pyridine-3-carboxamide] | 100
29 | COCCOc1ncc(-c2cnc(Nc3ccc(F)c(Cl)c3)nc2-n2nc(C(F)(F)F)cc2C)cc1C(=O)O [Example 1130, 5-(2-(3-chloro-4-fluorophenylamino)-4-(5-methyl-3-(trifluoromethyl)-1H-pyrazol-1-yl)pyrimidin-5-yl)-2-(2-methoxyethoxy)nicotinic acid] | 99
30 | COCCCNc1nc(Nc2ccc(F)c(Cl)c2)ncc1-c1nc(-c2ccc(C#N)cc2)cs1 [Example 498, 4-(2-{2-[(3-chloro-4-fluorophenyl)amino]-4-[(3-methoxypropyl)amino]pyrimidin-5-yl}-1,3-thiazol-4-yl)benzonitrile] | 41
31 | Cc1cc(C(F)(F)F)nn1-c1nc(Nc2ccc(F)c(Cl)c2)ncc1-c1c[nH]c(=O)c(C(=O)O)c1 [Example 1094, 5-(2-(3-Chloro-4-fluorophenylamino)-4-(5-methyl-3-(trifluoromethyl)-1H-pyrazol-1-yl)pyrimidin-5-yl)-2-oxo-1,2-dihydropyridine-3-carboxylic acid] | 99
